# From ChEMBL document CHEMBL1201862, “PubChem BioAssay data set” (2004)
# Activity calls are given as the source filed them.
# What was measured:
# Transthyretin = Transthyretin (Homo sapiens, UniProt P02766); test: Luminescence-based cell-based high throughput dose response assay to identify activators of Transthyretin (TTR) transcription.; format: functional
# [1] = biological target: Heat shock protein HSP 90-alpha (Homo sapiens, UniProt P07900); format: functional, organism-based
# [2] = control 3'UTR Renilla luciferase suppression, dose response, counter-screen for Shn3 inhibitor project, cell-based, Clone20-Shn3RL, cherry-picked (AID 624133); format: functional
# [3] = Shn3 3'UTR reporter inhibitors, dose response, cell-based, Clone20 osteoblasts, firefly luciferase, cherry-picked (AID 624132); format: functional;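 further: firefly luciferase luminescence from reporter carrying the Shn3 3'UTR in osteoblasts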
# [4] = Fluorescence-based cell-based high throughput dose response assay for inhibitors of the interaction of nucleotide-binding oligomerization domain containing 2 (NOD2) and the receptor-interacting serine-threonine kinase 2 (RIPK2).; format: functional; settings: Homo sapiens
# HeLa = test: HeLa cell cytotoxicity, dose response, cytotoxicity control, ATP luminescence, cherry-pick samples (AID 687004); format: functional, cell-based; settings: Homo sapiens
# [5] = inhibitors of PGC1a acetylation in cells, dose response, cell-based, cherry-picked samples (AID 720514); format: functional;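 further: potency may reflect raised or lowered acetylation signal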
# Paired box protein Pax-8 = Paired box protein Pax-8 (Homo sapiens, UniProt Q06710); test: inhibitors of PAX8-driven TPO luciferase reporter, dose response, RMG-I cells, cherry-pick (AID 687027); format: functional, cell-based;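 further: luciferase reporter driven by Pax8 target thyroperoxidase promoter measured by SteadyGlo luminescence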
# [6] = ZM109 Env clade C HIV-1 fusion inhibitors, dose response, HeLa effector, CEM target cells, luciferase, cherry-pick (AID 652058); format: functional, cell-based
# [7] = inhibitors of HIV Env-driven cell fusion, dose response, cherry-pick (AID 652057); format: functional, cell-based
# [8] = inhibitors of clade B AD8 Env fusion, dose response, cell-based, cherry-pick (AID 652062); format: functional;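 further: luciferase signal from cell-cell fusion driven by HIV-1 clade B AD8 Env; potency is for inhibitors of fusion seen as a drop in luminescence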
# [9] = P. falciparum 3D7-ScDHODH growth inhibitors, dose response, SYBR Green, dry powder samples (AID 1159570); format: functional, cell-based;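 further: parasite growth measured after 72 hours of compound exposure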
# [10] = P. falciparum Dd2 growth inhibitors, dose response, SYBR Green, cherry-picked samples (AID 1159567); format: functional, cell-based
# [11] = P. falciparum ATP4 D1247Y mutant growth inhibitors, dose response, NITD609-resistant line, SYBR Green, dry powder (AID 1159571); format: functional, cell-based;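 further: parasites synchronized at ring stage by sorbitol before testing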
# [12] = P. falciparum Dd2 growth inhibitors, dose response, SYBR Green, dry powder samples (AID 1159566); format: functional, cell-based;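 further: potency for growth inhibition with lower SYBR green DNA signal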
# Caspase-3 = biological target: T1, Caspase-3 (Homo sapiens, UniProt P42574); format: functional;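 further: Dose-response selectivity test against caspase-3 for candidate inhibitors of sentrin-specific proteases (SENPs)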
# T1 sequence (P42574 whole entry): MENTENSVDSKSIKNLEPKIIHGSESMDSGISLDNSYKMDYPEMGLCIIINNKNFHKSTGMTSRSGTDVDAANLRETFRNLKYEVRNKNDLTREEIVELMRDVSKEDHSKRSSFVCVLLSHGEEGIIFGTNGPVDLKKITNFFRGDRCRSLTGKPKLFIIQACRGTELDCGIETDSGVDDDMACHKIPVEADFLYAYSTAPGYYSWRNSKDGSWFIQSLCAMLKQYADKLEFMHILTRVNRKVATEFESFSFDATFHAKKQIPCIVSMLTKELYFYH
# [13] = biological target: T2, Oxysterols receptor LXR-beta (Homo sapiens, UniProt P55055); format: functional, cell-based;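 further: Cell-based luminescence dose-response assay of agonist activity at LXR, run as a confirmatory counterscreen to a daf-12 agonist screen; HEK293 cells with Gal4-LXR fusion and GAL4-driven luciferase reporter; agonist potency from rising luciferase signal of a Gal4-LXR reporter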
# T2 sequence (P55055 whole entry): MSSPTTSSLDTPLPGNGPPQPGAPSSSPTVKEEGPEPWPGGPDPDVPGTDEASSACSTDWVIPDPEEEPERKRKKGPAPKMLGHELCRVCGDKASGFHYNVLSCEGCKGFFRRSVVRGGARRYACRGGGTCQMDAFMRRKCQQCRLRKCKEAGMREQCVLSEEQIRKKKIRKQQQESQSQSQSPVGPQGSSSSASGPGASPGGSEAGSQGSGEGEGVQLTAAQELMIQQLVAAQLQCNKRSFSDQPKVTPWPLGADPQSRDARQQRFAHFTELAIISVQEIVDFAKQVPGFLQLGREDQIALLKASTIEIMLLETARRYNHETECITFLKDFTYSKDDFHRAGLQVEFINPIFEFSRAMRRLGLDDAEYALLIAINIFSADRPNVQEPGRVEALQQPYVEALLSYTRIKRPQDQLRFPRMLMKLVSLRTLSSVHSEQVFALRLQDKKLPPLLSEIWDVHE
# [14] = biological target: T3, Heat shock factor protein 1 (Mus musculus, UniProt P38532); test: HSF1 potentiators in luciferase reporter cells, confirmation, cell-based, NIH3T3, luminescence, dose retest (AID 435004); format: functional;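 further: stress induced by proteasome inhibitor MG132 added 30 min after compound; luciferase reporter driven by HSF1 response element in NIH3T3 cells; actives raise luminescence as potentiators of the MG132 stress response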
# T3 sequence (P38532 whole entry): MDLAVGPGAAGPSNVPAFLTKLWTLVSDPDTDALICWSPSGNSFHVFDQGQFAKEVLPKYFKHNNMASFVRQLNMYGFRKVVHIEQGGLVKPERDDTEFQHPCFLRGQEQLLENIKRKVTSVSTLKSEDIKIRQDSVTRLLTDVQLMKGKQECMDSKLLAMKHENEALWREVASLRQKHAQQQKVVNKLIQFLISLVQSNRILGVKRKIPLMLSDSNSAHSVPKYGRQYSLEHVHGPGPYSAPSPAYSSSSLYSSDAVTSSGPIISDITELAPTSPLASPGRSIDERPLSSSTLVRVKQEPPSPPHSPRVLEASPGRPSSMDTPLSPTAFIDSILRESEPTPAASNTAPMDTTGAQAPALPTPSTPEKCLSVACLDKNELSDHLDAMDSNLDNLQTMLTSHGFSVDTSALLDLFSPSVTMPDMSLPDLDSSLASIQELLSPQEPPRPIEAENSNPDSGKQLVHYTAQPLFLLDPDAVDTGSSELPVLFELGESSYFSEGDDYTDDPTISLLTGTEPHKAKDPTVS
# [15] = biological target: T4, Sentrin-specific protease 6 (Homo sapiens, UniProt Q9GZR1); format: functional;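 further: Luminescence-based dose-response confirmatory assay of SENP6 inhibition, following up an ultra-high-throughput screen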
# T4 sequence (Q9GZR1 whole entry): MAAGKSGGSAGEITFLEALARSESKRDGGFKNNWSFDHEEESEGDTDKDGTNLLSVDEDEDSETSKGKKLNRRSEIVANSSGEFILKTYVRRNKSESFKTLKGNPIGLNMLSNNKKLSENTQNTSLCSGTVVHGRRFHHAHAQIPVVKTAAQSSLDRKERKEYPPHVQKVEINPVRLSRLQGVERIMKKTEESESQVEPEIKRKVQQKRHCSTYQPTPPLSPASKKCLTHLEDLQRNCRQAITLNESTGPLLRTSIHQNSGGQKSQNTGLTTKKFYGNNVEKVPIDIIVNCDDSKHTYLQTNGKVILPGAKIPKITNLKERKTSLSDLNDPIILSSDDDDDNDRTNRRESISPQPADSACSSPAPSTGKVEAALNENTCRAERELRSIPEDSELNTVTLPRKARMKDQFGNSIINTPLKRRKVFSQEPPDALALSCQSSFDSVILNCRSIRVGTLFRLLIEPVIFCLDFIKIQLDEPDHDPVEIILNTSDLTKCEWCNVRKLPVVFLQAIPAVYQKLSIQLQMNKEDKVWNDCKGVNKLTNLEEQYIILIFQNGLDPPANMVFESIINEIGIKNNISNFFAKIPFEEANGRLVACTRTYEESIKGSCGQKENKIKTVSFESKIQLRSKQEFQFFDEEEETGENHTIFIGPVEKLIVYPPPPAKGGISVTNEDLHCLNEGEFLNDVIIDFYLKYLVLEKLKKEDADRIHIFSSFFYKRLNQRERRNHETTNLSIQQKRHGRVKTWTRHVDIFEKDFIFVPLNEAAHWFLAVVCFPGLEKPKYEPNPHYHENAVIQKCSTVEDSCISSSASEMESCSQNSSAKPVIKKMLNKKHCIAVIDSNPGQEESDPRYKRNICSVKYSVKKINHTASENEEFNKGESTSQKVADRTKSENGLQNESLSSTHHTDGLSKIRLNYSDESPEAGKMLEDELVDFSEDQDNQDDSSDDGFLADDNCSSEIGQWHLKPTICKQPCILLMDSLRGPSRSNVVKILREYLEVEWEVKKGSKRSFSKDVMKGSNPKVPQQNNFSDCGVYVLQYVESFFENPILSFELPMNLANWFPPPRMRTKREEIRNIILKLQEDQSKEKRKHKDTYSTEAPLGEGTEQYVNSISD
# [16] = biological target: T5, Sentrin-specific protease 8 (Homo sapiens, UniProt Q96LD8); format: functional;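 further: luminescence read-out of SENP8 inhibition, dose-response confirmation following an ultra-high-throughput screen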
# T5 sequence (Q96LD8 whole entry): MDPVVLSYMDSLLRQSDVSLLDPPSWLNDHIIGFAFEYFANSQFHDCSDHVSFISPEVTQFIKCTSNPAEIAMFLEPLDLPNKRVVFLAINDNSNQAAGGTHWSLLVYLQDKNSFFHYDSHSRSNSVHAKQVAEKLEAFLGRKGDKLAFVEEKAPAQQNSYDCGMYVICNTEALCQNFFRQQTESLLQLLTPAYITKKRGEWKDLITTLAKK
# [17] = biological target: T6, Sentrin-specific protease 7 (Homo sapiens, UniProt Q9BQF6); format: functional;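 further: Luminescence-based dose-response confirmation of ultra-high-throughput screening hits, measuring inhibition of SENP7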
# T6 sequence (Q9BQF6 whole entry): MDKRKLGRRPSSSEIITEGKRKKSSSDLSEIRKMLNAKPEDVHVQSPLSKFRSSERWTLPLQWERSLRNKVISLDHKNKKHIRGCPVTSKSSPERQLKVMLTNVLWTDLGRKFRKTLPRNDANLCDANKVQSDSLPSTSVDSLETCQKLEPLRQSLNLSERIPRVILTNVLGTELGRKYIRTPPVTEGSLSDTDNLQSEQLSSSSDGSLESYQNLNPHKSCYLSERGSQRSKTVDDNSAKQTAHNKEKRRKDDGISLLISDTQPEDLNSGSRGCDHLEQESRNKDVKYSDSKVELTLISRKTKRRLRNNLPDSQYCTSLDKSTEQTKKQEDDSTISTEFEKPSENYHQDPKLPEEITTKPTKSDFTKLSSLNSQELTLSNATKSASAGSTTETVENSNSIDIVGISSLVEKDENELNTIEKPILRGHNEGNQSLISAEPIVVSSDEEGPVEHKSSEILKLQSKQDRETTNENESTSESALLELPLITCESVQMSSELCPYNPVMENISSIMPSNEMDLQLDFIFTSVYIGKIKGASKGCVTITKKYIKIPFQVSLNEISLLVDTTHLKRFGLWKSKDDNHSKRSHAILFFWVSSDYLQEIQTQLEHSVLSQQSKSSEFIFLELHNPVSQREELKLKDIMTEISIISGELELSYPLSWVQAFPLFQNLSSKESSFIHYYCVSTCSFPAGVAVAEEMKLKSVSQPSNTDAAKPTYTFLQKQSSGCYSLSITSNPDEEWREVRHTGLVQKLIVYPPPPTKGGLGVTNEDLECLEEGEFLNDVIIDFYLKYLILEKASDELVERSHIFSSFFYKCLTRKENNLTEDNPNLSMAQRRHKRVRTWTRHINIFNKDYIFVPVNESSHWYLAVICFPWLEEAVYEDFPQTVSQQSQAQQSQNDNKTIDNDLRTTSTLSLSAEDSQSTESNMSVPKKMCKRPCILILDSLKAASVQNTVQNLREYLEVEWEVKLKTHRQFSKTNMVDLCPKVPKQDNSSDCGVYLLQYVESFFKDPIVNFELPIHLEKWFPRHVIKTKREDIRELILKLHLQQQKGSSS
# Sequence of Paired box protein Pax-8 (Q06710 whole entry, the tested form may be a part): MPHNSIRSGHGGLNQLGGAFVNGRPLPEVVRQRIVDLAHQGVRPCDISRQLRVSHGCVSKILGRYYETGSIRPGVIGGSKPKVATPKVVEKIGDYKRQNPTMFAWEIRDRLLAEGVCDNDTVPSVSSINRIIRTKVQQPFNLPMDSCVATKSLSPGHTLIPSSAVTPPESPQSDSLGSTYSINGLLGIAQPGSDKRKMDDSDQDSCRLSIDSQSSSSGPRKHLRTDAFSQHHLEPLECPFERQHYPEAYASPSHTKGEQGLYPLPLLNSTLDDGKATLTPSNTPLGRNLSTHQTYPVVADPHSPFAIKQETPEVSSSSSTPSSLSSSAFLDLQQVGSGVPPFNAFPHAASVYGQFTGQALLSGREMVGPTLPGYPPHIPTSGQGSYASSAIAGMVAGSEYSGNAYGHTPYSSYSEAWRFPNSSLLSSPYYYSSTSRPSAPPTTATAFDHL
smiles,measurement,setting,value
CN(Cc1ccccc1)C(=O)c1[nH]cnc1C(=O)NCC(=O)OC(C)(C)C,EC50,Transthyretin,> 167 µM (inactive)
CC(=O)OC1(C)CC(C)C(=O)C(C(O)CC2CC(=O)NC(=O)C2)C1 (stereo not drawn),AC50,[1],< 0.195 µM (active)
same,AC50,[2],< 0.26 µM (active)
same,AC50,[3],< 0.26 µM (active)
same,IC50,[4],49.8 µM (inactive)
same,AC50,HeLa,14.5 µM (active)
same,AC50,[5],< 0.16 µM (active)
Cc1ccc(S(=O)(=O)N(C)C[C@@H]2Oc3cc(C#Cc4ccncc4)ccc3S(=O)(=O)N([C@@H](C)CO)C[C@H]2C)cc1,AC50,Paired box protein Pax-8,2.51 µM (active)
same,AC50,[5],2.39 µM (active)
COc1ccc(S(=O)(=O)Nc2ccc3c(c2)CC(=O)N([C@@H](C)CO)C[C@H](C)[C@H](CN(C)S(=O)(=O)c2ccc(C)cc2)O3)cc1,AC50,[6],23.8 µM (active)
same,AC50,[7],3.56 µM (active)
same,AC50,[8],33.9 µM (active)
same,AC50,[9],0.928 µM (active)
same,AC50,[10],1.7 µM (active)
same,AC50,[11],0.553 µM (active)
same,AC50,[12],0.563 µM (active)
c1ccc(N2CC3CCc4ccccc4C3=N2)cc1 (stereo not drawn),IC50,Caspase-3,23.3 µM (active)
same,EC50,cells,> 67.5 µM (inactive)
same,EC50,[13],> 67.5 µM (inactive)
same,EC50,[14],114 µM (active)
same,IC50,[15],30.4 µM (active)
same,IC50,[16],58.4 µM (active)
same,IC50,[17],5.67 µM (active)
